Source: ChEMBL document CHEMBL5050851, “Compounds that induce ferroptic cell death” (2020)

How the values were obtained:
[1] = tested on: HCT-116; test: Antiproliferative activity against human HCT-116 cells assessed as cell death after 72 hrs by Alamar blue viability assay; format: functional, cell-based; details: HCT-116, 72 h
[2] = tested on: ES-2; test: Antiproliferative activity against human ES2 cells assessed as cell death after 72 hrs by Alamar blue viability assay; format: functional, cell-based; details: ES-2, 72 h

Row | SMILES | IC50 [1] | IC50 [2]
1 | CO[C@H]1C[C@@]23CC[C@@H](C)[C@@](C)([C@H](OC(=O)C(Cl)Cl)C[C@@H](C4=CCn5c(=O)n(-c6ccccc6)c(=O)n5C4)[C@@H]2C)[C@]3(O)C1=O | > 100 µM | > 100 µM
2 | C=CC(=C)[C@@H]1C[C@@H](OC(=O)CCl)[C@]2(C)[C@H](C)CC[C@]3(C[C@H](O)C(=O)[C@]32O)[C@H]1C |  | 6.7 µM
3 | C[C@@H]1CC[C@@]23C[C@H](O)C(=O)[C@@]2(O)[C@]1(C)[C@H](OC(=O)CF)C[C@@H](C1=CCn2c(=O)n(-c4ccccc4)c(=O)n2C1)[C@@H]3C | > 100 µM | 34 µM
4 | CC(=O)O[C@H]1C[C@@]23CC[C@@H](C)[C@@](C)([C@H](OC(=O)CCl)C[C@@H](C4=CCn5c(=O)n(-c6ccccc6)c(=O)n5C4)[C@@H]2C)[C@]3(O)C1=O | 3.9 µM | 1.4 µM
5 | CO[C@H]1C[C@@]23CC[C@@H](C)[C@@](C)([C@H](OC(C)=O)C[C@@H](C4=CCn5c(=O)n(-c6ccccc6)c(=O)n5C4)[C@@H]2C)[C@]3(O)C1=O | > 100 µM | > 100 µM
6 | CC1=CC(C)=[N+]2C1=Cc1ccc(CCC(=O)NCCCn3cc(CN4C(=O)C5CC=C([C@@H]6C[C@@H](OC(=O)CCl)[C@]7(C)[C@H](C)CC[C@]8(C[C@H](O)C(=O)[C@]87O)[C@H]6C)CC5C4=O)nn3)n1[B-]2(F)F (stereo partly drawn) | 14.2 µM | 5.3 µM
7 | CC(=O)OCC(=O)O[C@@H]1C[C@@H](C2=CCn3c(=O)n(-c4ccccc4)c(=O)n3C2)[C@H](C)[C@@]23CC[C@@H](C)[C@]1(C)[C@]2(O)C(=O)[C@@H](O)C3 | > 100 µM | > 100 µM
